Experiment: Stability test according to ICH guidelines, related substances by in-house HPLC method
Assay type: physicochemical
Conditions: rosuvastatin calcium amorphous active substance (raw material)
Procedure: We performed stability tests on these tablet compositions, according to the method described in ICH guidelines. The tablets were packed in opaque OPA/Al/PVC-Al blisters with very low oxygen and humidity transmission rates. Using a HPLC in house method, we measured the level of lactone and total impurities formed after a period of storage of 12 months at 25°C/60%RH (normal conditions, A1) and of 6 months at 40°C/[…]. The results were compared with those obtained for the tablets at the moment of release (TO) and those obtained for the rosuvastatin calcium amorphous active substance (Table 2). Table 2. Related substances values for the tested formulations

CC(C)c1nc(N(C)S(C)(=O)=O)nc(-c2ccc(F)cc2)c1/C=C/[C@@H](O)C[C@@H](O)CC(=O)[O-].CC(C)c1nc(N(C)S(C)(=O)=O)nc(-c2ccc(F)cc2)c1/C=C/[C@@H](O)C[C@@H](O)CC(=O)[O-].[Ca+2] [RC amorphous, bis [(E)-7-[4-(4-fluorophenyl)-6-isopropyl-2-[methyl(methylsulfonyl)amino]pyrimidin-5-yl]-(3R,5S)-dihydroxyhept-6-enoic acid] calcium salt]
Lactone, %: 0.010%
Total impurities, %: 0.150%
